Source: patent publication US20030144255A1, “Compositions for prevention and treatment of dementia” (priority 2002, published 2003)

Key:
aged rats [1] = assay: Passive avoidance learning test in aged rats; format: in vivo, rat; settings: aged male rats of transgenic strain, test started on day 14 of treatment, vs control group
Procedure: (§1) Male (3 to 27 months old) rats of transgenic strain were used. The aged rats were divided into the following four groups.
(§2) 1) Control group: Repeated administration of placebo pill.
(§3) 2) 4,4′-diaminodiphenylsulphone group: Repeated oral administration of 4,4 -diaminodiphenylsulphone 1 mg/kg.
(§4) 3) Cholinesterase inhibitor group: Repeated oral administration of donepezil 0.3 mg/kg.
(§5) 4) Combination group: Repeated oral administration of 4,4′-diaminodiphenylsulphone 3 mg/kg and donepezil 0.3 mg/kg.
(§6) In the combination group, 4,4′-diaminodiphenylsulphone was administered 30 minutes after administration of donepezil.
(§7) Passive avoidance learning test was started on day 14 of treatment, and Morris water maze learning test on day 20 of treatment.
(§8) On each day of experiment, 4,4′-diaminodiphenylsulphone and a cholinesterase inhibitor were administered 30 minutes and 1 hour, respectively, before initiation of the trial.
The passive avoidance learning test was performed using a chamber consisting of light and dark compartments. […]
In each trial, the latency from opening of the slide door until the animal moved to the dark compartment (step-through latency) was measured.

aged rats [2] = assay: Morris water maze learning test in aged rats; format: in vivo, rat; settings: aged male rats of transgenic strain, test started on day 20 of treatment, vs control group
Procedure: as §1, §2, §3, §4, §5, §6, §7, §8
Same animals used in the passive avoidance test were subjected for the water maze task. However, some rats can not swim well in the water tank, thus they were excluded in the water maze task. The water maze learning test was performed on young rats (saline, 10 animals) and aged rats (control group, 9 animals; 4,4′-diaminodiphenylsulphone group, 9 animals; Compound B group, 8 animals; combination group, 8 animals). […]

SMILES | passive avoidance learning deficit (step-through latency / avoidance time) (aged rats [1]; repeated oral 1 mg/kg) | water maze learning deficit (latency to find platform submerged in the water) (aged rats [2]; repeated oral 1 mg/kg) | passive avoidance learning deficit (step-through latency / avoidance time) (aged rats [1]; repeated oral 0.3 mg/kg) | water maze learning deficit (latency to find platform submerged in the water) (aged rats [2]; repeated oral 0.3 mg/kg)
Nc1ccc(S(=O)(=O)c2ccc(N)cc2)cc1 [4,4′-diaminodiphenylsulphone] | significant improvement of the learning deficit | significant improvement in water maze learning deficit |  | 
COc1cc2c(cc1OC)C(=O)C(CC1CCN(Cc3ccccc3)CC1)C2.Cl (stereo not shown) [donepezil, 2,3-dihydro-5,6-dimethoxy-2-[[1-(phenylmethyl)-4-piperidinyl]methyl]-1H-inden-1-one hydrochloride] |  |  | significant improvement of the learning deficit | significant improvement in water maze learning deficit
